Where two headings read alike, the source gives them in different places.
Key:
[1] = tested on: SKOV3 ovarian cancer cells; test: Photosensitizer uptake into SKOV3 cancer cells (absorbance of cell lysates at 405 nm); conditions: SKOV3, 5 μM
Experimental: (§1) SKOV3 cells were seeded in 96-well black wall plates (Greiner #655090) at a cell density of 5000 cells in 100 μl culture medium per well. […] Cells were incubated for up to 18 hours. At time periods of 10 min, 20 min, 30 min, 60 min, 2 hrs, 4 hrs and 18 hrs, media was removed and the cells lysed in 100 μl of lysis buffer (PBS+1% SDS+1% PVP+Benzonase Nuclease 500 units/mL). Each sample was snap-frozen on dry ice until use.
(§2) Eight point standard curves using compound 1 or chlorin e4 disodium were constructed in the range 0-10 μM using serial dilutions in lysis buffer. Cell lysates (100 μl) were thawed, centrifuged at room temperature (21,000 g, 10 mins) and the supernatants transferred to fresh tubes. 100 μl of each supernatant was added neat to 96-well microplates and absorbance measured at 405 nm using a Cytation 3 multimode plate reader. All wells were measured against blank wells containing buffer alone, and a background value measured using untreated cells was subtracted from all samples. The concentration of each chlorin species was determined against the appropriate standard curve in each case.
(§3) Chlorin e4 disodium (which enters cells via a passive diffusion process) was included as a comparator, and untreated cells were used as a control. Cells were harvested at time periods from 10 mins to 18 hours post addition of photosensitizers, cells were lysed and the supernatants measured for uptake of photosensitizers against an appropriate standard curve.

[2] = tested on: Human ovarian cancer cell line SKOV3; test: Inherent cytotoxicity (dark toxicity) in SKOV3 cells (AlamarBlue viability); conditions: SKOV3, 24 h incubation, no light activation
Experimental: (§4) Serial dilutions were prepared in cell culture media (Dulbecco's Modified Eagle Medium/Nutrient Mixture F-12 (DMEM/F-12)) supplemented with 10% v/v Fetal Bovine Serum, 100 U/mL penicillin, 100 μg/mL streptomycin and the same excipient solution at a constant 1:55 dilution.
(§5) Human ovarian cancer cell line SKOV3 (ATCC #HTB-77) was maintained in Dulbecco's Modified Eagle Medium/Nutrient Mixture F-12 (DMEM/F-12), supplemented with 10% v/v Fetal Bovine Serum, 100 U/mL penicillin and 100 μg/mL streptomycin. Monolayer cultures were grown in a humidified incubator at 37° C. with 5% CO2. Once cells had reached ˜80% confluence, spent media was replaced with media containing photosensitizer at the required concentration and cells were incubated for the desired period of time to allow photosensitizer uptake.
(§6) Spectral absorbance and viability measurements were normalized in the range 0-100%, with a minimum of 0 and a maximum value determined from the dataset. Dose response was determined using a sigmoidal four-point non-linear regression with variable slope, and IC10 or IC90 calculated for each compound. All data are shown as mean±SD (where appropriate).
(§7) On reaching ˜60% confluence, media was aspirated and replaced with fresh media containing the relevant phyllochlorin analogue from 0-100 μM in DMSO.
(§8) Untreated cells were used as a control. […] All measurements were made in quadruplicate.
(§9) The phototoxicity and inherent cytotoxicity (i.e. “dark toxicity”) of phyllochlorin analogues were assessed as previously using SKOV3 ovarian cancer cells. For comparative purposes, phyllochlorin analogues were compared against chlorin e4 disodium and Talaporfin sodium, a clinically approved photosensitizer used in the photodynamic treatment of lung cancers.

E coli DH5α cells = test: Photosensitizer uptake into bacterial cells (absorbance spectra of lysates); type: cell-based; conditions: 50 μM, incubated overnight
Experimental: E coli DH5α cells were inoculated into LB media and incubated overnight (shaking at 37° C.) in the presence of 50 μM compound 1 or chlorin e4 disodium. Untreated cells acted as the control. The following day cells were harvested by centrifugation (5000 g, 10 mins, room temperature) and lysed by addition of PBS+1% SDS (w/v)+1% PVP-17 (w/v). Insoluble material was pelleted by centrifugation at 21,000 g (10 mins, bench top centrifuge) and the supernatant transferred to a fresh tube. A 100 μl aliquot was added to clear 96-well microtitre plates and absorbance spectra measured between 600-700 nm (Cytation 3 multimode plate reader). The optical density (OD) was plotted against wavelength in each case to determine uptake of photosensitizer into cells.

[3] = tested on: Human ovarian cancer cell line SKOV3; test: Phototoxicity in SKOV3 cells (660 nm laser or LED, AlamarBlue viability); type: cell-based; conditions: for IC90: SKOV3, 24 h uptake, viability 24 h later
Text: All data are shown as mean±SD (where appropriate).
Media was then replaced with fresh media containing AlamarBlue, and % viable cells remaining assessed as above. […] All measurements were made in quadruplicate.

[4] = Determination of solubility of phyllochlorin analogues (absorbance maxima as surrogate measure); type: physicochemical
Experimental: Absorbance maxima were used as a surrogate measure of solubility. The relevant phyllochlorin analogue was diluted to 50 μM in PBS (phosphate buffered saline) solutions containing decreasing amounts of DMSO from 100% to 0%.
Where required, polyvinylpyrrolidone (K30) was added to a final concentration of 1% w/v. Absorbance was measured using a Cytation 3 Multimode Plate Reader (Biotek) in spectral scanning mode, with spectra captured between 500-800 nm in 2 nm increments. Equivalent blank solutions were also measured and subtracted accordingly. Each spectrum was normalized to have a minimum signal of 0, and a maximum signal in pure DMSO solution (the most soluble state) of 100%.
The solubility of compound 1 was assessed in solutions containing DMSO as an organic solvent. Compound 1 (50 μM final concentration) was resuspended in 100% DMSO to fully dissolve compound 1, in the presence or absence of 1% PVP (w/v). With concentrations of compound 1 maintained at 50 μM the % DMSO was decreased in a stepwise manner from 100% to 0%. All solutions were mixed by vortexing, then centrifuged for 2 mins to pellet any insoluble material. A 150 μl aliquot was transferred to individual wells of a 96-well clear microplate, and absorbance spectra collected between 500-800 nm in 2 nm increments. Equivalent solutions containing decreasing % DMSO were used to control for background.

[5] = tested on: Human ovarian cancer cell line SKOV3; conditions: 24 h
Experimental: as §4, §5, §6, §7, §8, §9

[6] = tested on: SKOV3 ovarian cancer cells; conditions: human, 5 μM
Experimental: as §1, §2, §3

[7] = 660 nm laser 50 mW/cm^2 for 5 mins (15 J/cm^2), read-out: Phototoxicity μM (IC90)
[8] = Homo sapiens, SK-OV-3, light or radiation study, 660 nm LED panel 50 mW/cm^2 for 5 mins (15 J/cm^2), read-out: Phototoxicity μM (IC90), measured by LED

C=Cc1c(C)c2cc3nc(c(C)c4[nH]c(cc5nc(cc1[nH]2)C(C)=C5CC)c(C)c4C(=O)O)[C@@H](CCC(=O)O)[C@@H]3C [Chlorin e4 disodium, reference compound]
detectability in cells [1]: undetectable until after one hour of incubation
time of reaching maximum accumulation [1]: 18 h
Dark toxicity μM (IC10) [2]: 40.23 µM
detection in bacterial lysates (E coli DH5α cells): detected marginally above background
IC90 [3, 7]: 21.3 µM

CCC1=C(C)c2cc3[nH]c(cc4nc(c(C)c5cc(C)c(cc1n2)[nH]5)[C@@H](CCC(=O)OC)[C@@H]4C)c(C)c3C(C)OCCCS[C@@H]1O[C@H](CO)[C@@H](O)[C@H](O)[C@H]1O (stereo partly drawn) [Compound 1, methyl 3-((7S,8S)-18-ethyl-2,5,8,12,17-pentamethyl-13-(1-(3-(((2S,3R,4S,5S,6R)-3,4,5-trihydroxy-6-(hydroxymethyl)tetrahydro-2H-pyran-2-yl)thio)propoxy)ethyl)-7H,8H-porphyrin-7-yl) propanoate]
apparent solubility ([4]; 50 μM, DMSO concentrations below 40%): ~45%
solubility ([4]; 50 μM, concentrations above 70% DMSO): completely soluble
solubility in aqueous solution ([4]; 50 μM, no DMSO, addition of PVP 1%): ~75 % of maximal
absorbance maxima ([4]; in the presence of 1% PVP (w/v)): 650±2 nm
Dark toxicity μM (IC10) [5]: 13.500 µM
observed in cells (time of incubation) [6]: ≤ 10 min
rate of uptake [6]: substantially faster than that of chlorin e4 disodium
time the rate of uptake was maintained after addition of photosensitizer [6]: 2 to 4 h
detection in bacterial lysates (E coli DH5α cells): clearly detectible
IC90 ([3]; Homo sapiens, SK-OV-3, light or radiation study, 660 nm laser 50 mW/cm^2 for 5 mins (15 J/cm^2), read-out: Phototoxicity μM (IC90)): 0.06 µM

CCC1=C(C)c2cc3[nH]c(cc4nc(c(C)c5cc(C)c(cc1n2)[nH]5)[C@@H](CCC(=O)OC)[C@@H]4C)c(C)c3COC(=O)NCCCOCCC[P+](c1ccccc1)(c1ccccc1)c1ccccc1 [Compound 40, phyllochlorin methyl ester 13-(N-(3-(3-triphenylphosphoniumpropoxy)propyl)chloride)carbamate]
Dark toxicity μM (IC10) [2]: 0.6145 µM
IC90 [3, 8]: 0.0008 µM

CCC1=C(C)c2cc3[nH]c(cc4nc(c(C)c5cc(C)c(cc1n2)[nH]5)[C@@H](CCC(=O)OC)[C@@H]4C)c(C)c3COC(=O)NCCC[P+](c1ccccc1)(c1ccccc1)c1ccccc1 [Compound 45, phyllochlorin methyl ester 13-(N-(3-triphenylphosphoniumpropyl)bromide)carbamate]
Dark toxicity μM (IC10) [2]: 3.977 µM
IC90 [3, 8]: 0.0012 µM

CCC1=C(C)c2cc3[nH]c(cc4nc(c(C)c5cc(C)c(cc1n2)[nH]5)[C@@H](CCC(=O)OC)[C@@H]4C)c(C)c3COC(=O)NCC[P+](c1ccccc1)(c1ccccc1)c1ccccc1 [Compound 46, phyllochlorin methyl ester 13-(N-(2-triphenylphosphoniumethyl)bromide)carbamate]
Dark toxicity μM (IC10) [5]: 1.277 µM
IC90 [3, 8]: 0.0014 µM

CCC1=C(C)c2cc3[nH]c(cc4nc(c(C)c5cc(C)c(cc1n2)[nH]5)[C@@H](CCC(=O)N(C)CCOC)[C@@H]4C)c(C)c3COC(=O)NCCC[P+](c1ccccc1)(c1ccccc1)c1ccccc1 [Compound 50, phyllochlorin N-methyl-N-(2-methoxy)ethyl propylamide 13-(N-(3-triphenylphosphoniumpropyl)bromide)carbamate]
Dark toxicity μM (IC10) [2]: 0.470 µM
IC90 [3, 8]: 0.0016 µM

CCC1=C(C)c2cc3[nH]c(cc4nc(c(C)c5cc(C)c(cc1n2)[nH]5)[C@@H](CCC(=O)NCCOC)[C@@H]4C)c(C)c3COC(=O)NCCC[P+](c1ccccc1)(c1ccccc1)c1ccccc1 [Compound 52, phyllochlorin N-(2-methoxy)ethyl propylamide 13-(N-(3-triphenylphosphoniumpropyl)bromide)carbamate]
Dark toxicity μM (IC10) [2]: 1.060 µM
IC90 [3, 8]: 0.0052 µM

CCOC(=O)CC[C@@H]1c2nc(cc3[nH]c(cc4nc(cc5[nH]c(cc5C)c2C)C(CC)=C4C)c(COC(=O)NCCC[P+](c2ccccc2)(c2ccccc2)c2ccccc2)c3C)[C@H]1C [Compound 53, phyllochlorin ethyl ester 13-(N-(3-triphenylphosphoniumpropyl)bromide)carbamate]
Dark toxicity μM (IC10) [2]: 2.240 µM
IC90 [3, 8]: 0.00077 µM
greater phototoxicity compared to Talaporfin sodium ([3]; SKOV3, IC90): 5 orders of magnitude

C=Cc1c(C)c2cc3nc(c(CC(=O)N[C@@H](CC(=O)O)C(=O)O)c4[nH]c(cc5nc(cc1[nH]2)C(C)=C5CC)c(C)c4C(=O)O)[C@@H](CCC(=O)O)[C@@H]3C [Talaporfin sodium, reference compound]
Dark toxicity μM (IC10) [2]: 11.10 µM

phyllochlorin 13-(N-(3-(3-triphenylphosphoniumpropoxy)propyl)chloride)carbamate N-methyl-N-3,6,9-trioxadecyl propylamide [Compound 44]
Dark toxicity μM (IC10) [2]: 0.5603 µM
IC90 ([3]; 660 nm LED panel 50 mW/cm^2 for 5 mins (15 J/cm^2), read-out: Phototoxicity μM (IC90), measured by LED): 0.0057 µM

phyllochlorin methyl ester 3-triphenylphosphonium bromide propyl ether [Compound 21]
Dark toxicity μM (IC10) [2]: 3.801 µM
IC90 [3, 7]: 0.012 µM

From patent US20250177533A1, “PHOTODYNAMIC THERAPY AND DIAGNOSIS” (RMW CHO Group Limited, priority 2021, published 2025)
